The values that follow come from patent publication US20200306185A1, “ANTIBACTERIAL COLLOID AND METHOD FOR MANUFACTURING THE SAME” (Kaohsiung Medical University, priority 2019, published 2020).

One experiment has as its system K. pneumoniae BAA-1705. The experiment is described as follows: Synergistic bacteriostatic test (checkerboard test). It is filed as cell-based, Klebsiella pneumoniae. As for the experimental part: (§1) The synergistic bacteriostatic test is carried out by using the silver-containing antibacterial colloid (green mediated AgNP inhibitor) manufactured in the present embodiment and a bioactivator (using Gentamicin as an example). The fractional inhibitory concentration (FIC) index is used as a reference index for synergy. Synergy is the phenomenon in which two or more substances are mixed with each other, and the overall effect is greater than the advantage of each substance alone or less than the disadvantage of each substance alone. […] In the two-fold serial dilutions, the concentration of Gentamicin used for K. pneumoniae 700623 ranging from 1.25 μg·mL^−1 to 40 μg·mL^−1, and the concentration of Gentamicin used for K. pneumoniae BAA-1705 ranged from 5 μg·mL^−1 to 160 μg·mL^−1 The green mediated AgNP inhibitor extract extracted with TSB medium is used, and the above procedure is repeated to dilute the concentration of the green mediated AgNP inhibitor extract to 10 mg·mL^−1 50 μL of green mediated AgNP inhibitor is added longitudinally to the 96-well microplate in a two-fold serial dilution using MHB, followed by two-fold serial dilutions of six times at concentrations ranging from 0.31 mg·mL^−1 to 10 mg·mL^−1 Using 0.5 Mcfarland turbidity as the quantitative standard for bacterial solution (0.5 Mcfarland=10^8 CFU/mL). […]

The next experiment relates to K. pneumoniae 700623. The experiment is described as above. It is filed as cell-based, Klebsiella pneumoniae. On the procedure: as §1
Setting [1] is: in combination with green mediated AgNP inhibitor.

As to Gentamicin, the “concentration of Gentamicin when used in combination (G-MIC-com)” value in the experiment on K. pneumoniae BAA-1705 (setting [1]) turned out to be 10 µg/mL; with K. pneumoniae 700623 (setting [1]), 5 µg/mL. The “MIC of Gentamicin when used alone (MICG)” value with K. pneumoniae BAA-1705 (used alone) and in the experiment on K. pneumoniae 700623 (used alone) was 40 µg/mL each time.
